Measurements as given in patent publication US20120122716A1, “CELL LINE DERIVED FROM THE EPITHELIAL LINING OF THE HUMAN ENDOLYMPHATIC SAC IN THE INNER EAR” (priority 2010, published 2012).

Tests used:
[1] = tested on: AQP2; experiment: RT-PCR analysis of AQP2 expression in ES cells; format: cell-based; conditions: immortalized human ES epithelial cells
Source text: The inner ear can function properly only if the chemical equilibrium and volume of inner ear fluids are maintained. The disruption of inner ear homeostasis results in many inner ear disorders such as Meniere's disease. The endolymphatic sac (ES) is believed to be involved in homeostasis of endolymph such as ion and fluid regulation. Aquaporins (AQPs) function like a molecular water valve, allowing water to move along a specific direction. AQP1, 2, 3, 4, and 6 are all found in the ES and may have an important role in endolymph fluid homeostasis. […] Taken together, our findings indicate that ES epithelial cells are invovled in homeostasis of endolymph through regulation of AQP2 and AQP3. We believe that our ES cell line will provide an in vitro model enabling us to better understand the molecular pathogeneis of Meniere's disease.

[2] = tested on: ES cells; experiment: Water permeability of ES cells (fluorescence-quenching assay); format: cell-based; conditions: immortalized human ES epithelial cells
Protocol: For water permeability measurement, an ES cell line is plated in 96-well clear bottom of black-walled microplates (Costar) at a density of 20000 cells per well in F-12 Ham's medium supplemented with 10% FBS and 0.5 mg/mL G418. After incubation at 37° C. in an atmosphere containing 5% CO2 with 90% humidity for 18 h, the cells in 96-well plates are washed twice in PBS buffer (200 μL/wash), leaving 100 μL PBS after the last wash. Measurement is performed on a FLUOstar Optima plate reader (BMG Technology) equipped with syringe pumps and excitation and emission filters. Cells in each well of the plate are assayed individually for osmotically driven (e.g., aquaporin-mediated), water influx across the plasma membrane that dilutes the cytoplasmic Cl^− by recording fluorescence increase continuously (0.2 s per point) for 2 s (baseline) and then for 21 s (water transport into the cells) after rapid injection (<1 s) of 100 μL distilled water. Water permeability is expressed as half time (t1/2) from water injection to the point when the cytoplasmic fluorescence reaches the maximum. A smaller t1/2 represents a higher water permeability.
The inner ear can function properly only if the chemical equilibrium and volume of inner ear fluids are maintained. The disruption of inner ear homeostasis results in many inner ear disorders such as Meniere's disease. […]

[3] = tested on: HESC-1 cells; experiment: Secretion of viscous substance by HESC-1 cells; format: cell-based, human
Source text: For example, viscosity of the substance derived from the cells can be measured using an Ubbelohde viscometer (VWR) after collection of the supernatant. Osmolality of the substance can be measured using a freezing point osmometer (Precision Systems, Natick, MA). To determine the factors influencing secretion of osmotically active and viscous substances, the cells can be cultured using a serum-free medium with deficiency of a specific factor such as retinoic acid, hydrocortisone and triiodothronine.
(§1) Regulatory mechanisms involved in secretion and biological functions of these molecules can be determined. The HESC-1 cells provides a basis for an in vitro model for the studies of secretory function of the ES.

[4] = tested on: mucin core proteins and hyaluronic acid synthases; experiment: qRT-PCR analysis of mucin core proteins and hyaluronic acid synthases in HESC-1 cells; format: cell-based, human
Source text: We identified hyaluronic acid among the osmotically active substances derived from our ES cell line. Three isoforms of hyaluronic acid synthases (HASs) are identified in humans. For example, transcriptional regulation of each HAS can be determined using real-time quantitative RT-PCR analysis after extraction of total RNAs from the ES cell line. Protein levels of each HAS can be measured using immunobloting after extraction of total proteins from the ES cell line. To determine the factors regulating each HAS, the cells can be cultured using a serum-free medium with deficiency of a specific factor such as retinoic acid, hydrocortisone and triiodothronine.
as §1

Molecule | AQP2 expression (RT-PCR) [1] | water permeability of ES cells upon exposure [2] | secretion of viscous substance [3] | expression of mucin core proteins and hyaluronic acid synthases (qRT-PCR) [4]
NC(=O)CC[C@@H]1NC(=O)[C@H](Cc2ccccc2)NC(=O)[C@H](Cc2ccc(O)cc2)NC(=O)[C@@H](N)CSSC[C@@H](C(=O)N2CCC[C@H]2C(=O)N[C@@H](CCCN=C(N)N)C(=O)NCC(N)=O)NC(=O)[C@H](CC(N)=O)NC1=O [vasopressin] | up-regulation | affected | – | –
EGF: human epidermal growth factor (EGF) (NSDSECPLSHDGYCLHDGVCMYIEALDKYACNCVVGYIGERCQYRDLKWWELR; UniProt P01133 971-1023, looked up) | – | – | secrete viscous substance | up-regulate
